Measured values reported in US10393755B2, “Compositions and methods for treating eye infections and disease” (UNIVERSITY OF VIRGINIA PATENT FOUNDATION, priority 2014, dated 2019).
No end group written: not given here.

Assays:
[1] = system: HCE-T cells; experiment: Lacritin accelerated autophagy and FOXO3 phosphorylation, inhibitors; format: cell-based, human
Method: Lacritin targeting of corneal sensory neurons. Adrenergic α2C selective antagonist MK912 inhibits lacritin accelerated autophagy in HCE-T cells, as does the syndecan-1 inhibitor xyloside. […] Activity profiles of corneal neurons before, during and 1 hr during/after 10 μM lacritin reveal a small inhibition (from ˜12 to ˜8 spikes/s) follows immediately after the application of lacritin presumably due to α2 adrenergic receptor activation which inhibits TRPM8 channels. Removal of this inhibition after 1 hr of lacritin and washout causes an enhanced excitation of dry (from ˜20 to ˜23 spikes/s) and wet response (from ˜12 to ˜16 spikes/s).

[2] = system: HCE-T cells; experiment: Viability (MTT) / cytoprotection of IFNG/TNF stressed cells; format: cell-based, human; conditions: for Cytoprotective activity of lacritin truncation and point mutants: 10 nM, IFNG/TNF stressed cells
Method: Viability was monitored using the 3-(4,5-dimethyl[…])-2,5-diphenyltetrazolium bromide) (MTT) reduction assay (Invitrogen) or a Nucleocounter (New Brunswick Scientific, Edison, N.J.). Cells were seeded overnight in 24-well plates at a density of 500 cells/mm2 to give rise to ˜80% confluence the next day. Then cells were sensitized overnight in IFNG (100 units/ml) in α-MEM and treated in triplicate for 15 min with 10 nm lacritin or lacritin deletion or point mutants or with different lacritin doses in α-MEM together with TNF as described above.
Inclusion of inhibitors was simultaneous with the addition of lacritin or C-25 in all viability and other experiments except where otherwise noted. Inhibitors included PI103 (0.5 μm; EMD, Darmstadt, Germany), rapamycin (10 and 100 nm; EMD), and cyclosporin A (0.1 μm; EMD). One exception was 4-methylumbelliferyl-β-d-xylopyranoside (“xyloside”; 70 and 80 nm; Sigma), which was added during IFNG sensitization and during treatment with TNF and lacritin. The assay was completed by addition of MTT (5 mg/ml) to each well (at 37° C. for 4 h) followed by isopropanol with 0.04 n HCl and measurement at 570 nm using a reference wavelength of 630 nm. Viability was assayed in a Nucleocounter (New Brunswick Scientific).

[3] = system: bacteria; experiment: Lacritin inhibition (colony count) assay, bacterium not given; format: cell-based; conditions: synthetic peptides
Method: (§1) Bacterial Growth, SYTOX Green Assays, and on Column Cleavage—E. coli (ATCC (Manassas Va.) catalog no. 10536), S. epidermidis (ATCC catalog no. 12228), and P. aeruginosa (ATCC catalog no. 9027) were grown to mid-log phase in 50 ml of Luria-Bertani (LB) medium and washed three times in phosphate buffer containing 10 mM NaCl (pH 7.2; PB—NaCl) with centrifugation. Pellets were resuspended in 1 ml of PB—NaCl.
(§2) For lacritin inhibition assays, 50 ul of bacterial pellets each diluted 1:100 in PB—NaCl were incubated for 1.5 h (37° C.) with 100 ul of lacritin, lacritin truncations, or synthetic peptides at a final concentration of 0.1-6 uM. Mixtures were diluted 1:10 in PB—NaCl before plating 100 ul in quadruplicate on LB agar plates for overnight growth at 37° C. Colonies were manually counted. In other experiments, mid-log E. coli was treated at 37° C. for 0, 1, 2, or 3 h with 2 uM lacritin or lacritin truncations or with ampicillin (5 uM) or tetracycline (2 uM). After each treatment, 100 ul was centrifuged, resuspended in 1 ml of PB—NaCl, and plated (100 ul) onto LB agar for overnight growth (37° C.) and colony counting.

[4] = format: in vitro ADME, human
Method: A limitation of most synthetic peptide drugs is their protease sensitivity. […] Retropepsin would inactivate LACRIPEP, while cathepsin K would have no effect. However neither protease is found in normal human tears. Nonetheless, tears are rich in other proteases. We therefore incubated LACRIPEP in normal human tears at 37° C. for 2, 4, 6 and 16 hr. For immunoblotting, we first removed all endogenous lacritin by immunodepletion. […] (FIG. 6B).

[5] = system: E. coli; experiment: Lacritin inhibition (colony count) assay, E. coli; format: cell-based; conditions: dose response studies; read-out: Half-maximal inhibition
Method: as §1, §2

[6] = system: P. aeruginosa; experiment: Lacritin inhibition (colony count) assay, P. aeruginosa; format: cell-based; conditions: dose response studies; read-out: Half-maximal inhibition
Method: as §1, §2

[7] = molecular target: T1, syndecan-1 (Homo sapiens, UniProt P18827, L136Q); experiment: Binding to syndecan-1
T1 sequence (P18827 23-310 L136Q): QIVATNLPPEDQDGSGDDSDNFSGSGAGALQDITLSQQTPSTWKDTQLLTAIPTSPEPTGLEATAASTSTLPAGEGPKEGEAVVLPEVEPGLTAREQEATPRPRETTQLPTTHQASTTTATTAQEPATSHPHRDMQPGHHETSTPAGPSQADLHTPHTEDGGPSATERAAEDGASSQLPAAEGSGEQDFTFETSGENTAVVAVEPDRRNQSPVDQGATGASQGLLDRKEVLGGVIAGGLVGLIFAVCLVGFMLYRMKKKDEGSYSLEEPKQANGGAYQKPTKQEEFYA

[8] = system: HCE-T cells; experiment: FOXO3 translocation assay in IFNG/TNF stressed HCE-T cells; format: cell-based, human; conditions: 10 nM, interferon-γ and TNF stressed HCE-T cells
Method: For FOXO3 translocation assays, HCE-T cells were grown in triplicate to subconfluence (˜50%) on coverslips in α-MEM (5.54 mm glucose), sensitized overnight in IFNG (100 units/ml; Roche Applied Science), and treated for 15 min with normal or dry eye tears diluted 1:100 in α-MEM together with TNF (50 ng/ml; PeproTech, Rocky Hill, N.J.) without or with 10 nm lacritin or C-25. Cells were washed, fixed with 4% paraformaldehyde, and immunostained for FOXO3 (1:200; Millipore, Billerica, Mass.) followed by goat anti-rabbit secondary antibody and visualization on a Zeiss LSM 700 microscope.

[9] = Phase behavior and nanoparticle formation (optical density, DLS, TEM); format: physicochemical; conditions: optical density
Method: The phase diagram for LSI fusion protein was characterized by optical density change at 350 nm as a function of solution temperature using a DU800 UV-Vis Spectrophotometer (Beckman Coulter, Brea, Calif.). Tt was defined at the point of the maximum first derivative. Self-assembly of nanoparticles was measured using dynamic light scattering (DLS) using a DynaPro-LSR Plate Reader (Wyatt Technology, Santa Barbara, Calif.). Light scattering data were collected at regular temperature intervals (1° C.) as solutions were heated from 5 to 50° C. The results were analyzed using a Rayleigh sphere model and fitted into a cumulant algorithm based on the sum-of-squares value.
The TEM imaging was carried out on a FEI Tecnai 12 TWIN microscope (Hillsboro, Oreg.) at 100 kV. Briefly, a 100 uM solution (5 uL) was initially deposited on a copper grid with carbon film (CF400-Cu, Election Microscopy Sciences, Hatfield, Pa.). After removing the excess amount of solution with filter paper, the samples were negatively stained with 2% uranyl acetate, followed by removing excess uranyl acetate after 30 s. b The samples were then dried under room temperature for at least 3 h before use in imaging.

Molecule: CN1CC[C@]2(CCN3CCc4c(oc5ccccc45)[C@@H]3C2)N(C)C1=O [MK912]
- Effect on lacritin stimulated FOXO3 phosphorylation [1]: inhibit
- Effect on lacritin accelerated autophagy ([1]; HCE-T cells): inhibits

Molecule: Cc1cc(=O)oc2cc(O[C@@H]3OC[C@@H](O)[C@H](O)[C@H]3O)ccc12 [xyloside, 4-methylumbelliferyl-β-d-xylopyranoside]
- Effect on lacritin cytoprotective activity ([2]; cells cultured overnight in xyloside): completely abrogated
- Effect on lacritin stimulated FOXO3 phosphorylation [1]: inhibit

Molecule: AKAGKGMHGGVPGG (listed as Homo sapiens) [N-80/C-25]
- Colonies with synthetic peptides [3]: colonies were abundant

Molecule: Ac-KQFIENGSEFAQKLLKKFS-NH2 [N-94/C-6, KQFIENGSEFAQKLLKKFS]
- Activity of synthetic peptide relative to lacritin ([2]; generated synthetically): as potent as lacritin
- Epitopes by immunoblotting after incubation in tears [4]: loses epitopes
- Stability relative to LACRIPEP [4]: not as stable
- Bactericidal activity of synthetic peptides [3]: slightly so
- Bactericidal activity of synthetic peptides ([3]; listed as SEQ ID NO: 5): substantially reduced the bactericidal activity

Molecule: Ac-KQFIENGSEFAQKLLKKFSLLKPWA (N-terminus assumed) [LACRIPEP]
- Time stable in human tears (immunoblot) [4]: at least 16 hr

Molecule: FAQKLLKKFSLLKPWA [N-104]
- Bactericidal activity of synthetic peptides [3]: fully active
- IC50 [5]: ~1 µM
- IC50 [6]: 1 to 1.5 µM

Molecule: LKSIVEKSILLTEQALAKAGKGMH (listed as Homo sapiens) [N-64/C-31]
- Colonies with synthetic peptides [3]: colonies were abundant

B1: Cross-linked lacritin: lacritin monomer cross-linked into inactive multimers by tissue transglutaminase (protein)
chain: EDASSDSTGADPAQEAGTSKPNEEISGPAEPASPPETTTTAQETSAAAVQGTAKVTSSRQELNPLKSIVEKSILLTEQALAKAGKGMHGGVPGGKQFIENGSEFAQKLLKKFSLLKPWA
- Binding to syndecan-1 [7]: substantially less
- FOXO3 cytoplasmic staining (pro-survival activity) [8]: less active
- FOXO3 cytoplasmic staining (pro-survival activity) ([8]; listed as tissue transglutaminase polymerized lacritin): inactive

B2: I98S: lacritin point mutant (protein, UniProt Q9GZZ8 20-138, looked up, variant I98S)
Extracellular glycoprotein …: EDASSDSTGADPAQEAGTSKPNEEISGPAEPASPPETTTTAQETSAAAVQGTAKVTSSRQELNPLKSIVEKSILLTEQALAKAGKGMHGGVPGGKQFSENGSEFAQKLLKKFSLLKPWA
- Cytoprotective activity of lacritin truncation and point mutants [2]: significantly less active

B3: F104S: lacritin point mutant (protein, UniProt Q9GZZ8 20-138, looked up, variant F104S)
Extracellular glycoprotein …: EDASSDSTGADPAQEAGTSKPNEEISGPAEPASPPETTTTAQETSAAAVQGTAKVTSSRQELNPLKSIVEKSILLTEQALAKAGKGMHGGVPGGKQFIENGSESAQKLLKKFSLLKPWA
- Cytoprotective activity of lacritin truncation and point mutants [2]: significantly less active

B4: L108S/L109S/F112S: lacritin triple point mutant (protein, UniProt Q9GZZ8 20-138, looked up, variant L108S L109S F112S)
Extracellular glycoprotein …: EDASSDSTGADPAQEAGTSKPNEEISGPAEPASPPETTTTAQETSAAAVQGTAKVTSSRQELNPLKSIVEKSILLTEQALAKAGKGMHGGVPGGKQFIENGSEFAQKSSKKSSLLKPWA
- Cytoprotective activity of lacritin truncation and point mutants [2]: significantly less active

B5: F112S: lacritin point mutant (protein, UniProt Q9GZZ8 20-138, looked up, variant F112S)
Extracellular glycoprotein …: EDASSDSTGADPAQEAGTSKPNEEISGPAEPASPPETTTTAQETSAAAVQGTAKVTSSRQELNPLKSIVEKSILLTEQALAKAGKGMHGGVPGGKQFIENGSEFAQKLLKKSSLLKPWA
- Cytoprotective activity of lacritin truncation and point mutants [2]: significantly less active

B6: L65S: lacritin point mutant (protein, UniProt Q9GZZ8 20-138, looked up, variant L65S)
Extracellular glycoprotein …: EDASSDSTGADPAQEAGTSKPNEEISGPAEPASPPETTTTAQETSAAAVQGTAKVTSSRQELNPSKSIVEKSILLTEQALAKAGKGMHGGVPGGKQFIENGSEFAQKLLKKFSLLKPWA
- Cytoprotective activity of lacritin truncation and point mutants [2]: unaffected

B7: V69S: lacritin point mutant (protein, UniProt Q9GZZ8 20-138, looked up, variant V69S)
Extracellular glycoprotein …: EDASSDSTGADPAQEAGTSKPNEEISGPAEPASPPETTTTAQETSAAAVQGTAKVTSSRQELNPLKSISEKSILLTEQALAKAGKGMHGGVPGGKQFIENGSEFAQKLLKKFSLLKPWA
- Cytoprotective activity of lacritin truncation and point mutants [2]: unaffected

B8: I73S: lacritin point mutant (protein, UniProt Q9GZZ8 20-138, looked up, variant I73S)
Extracellular glycoprotein …: EDASSDSTGADPAQEAGTSKPNEEISGPAEPASPPETTTTAQETSAAAVQGTAKVTSSRQELNPLKSIVEKSSLLTEQALAKAGKGMHGGVPGGKQFIENGSEFAQKLLKKFSLLKPWA
- Cytoprotective activity of lacritin truncation and point mutants [2]: unaffected

B9: LS96: lacritin fused to soluble ELP (VPGSG)96; thermally nonresponsive control (protein)
chain: GEDASSDSTGADPAQEAGTSKPNEEISGPAEPASPPETTTTAQETSAAAVQGTAKVTSSRQELNPLKSIVEKSILLTEQALAKAGKGMHGGVPGGKQFIENGSEFAQKLLKKFSLLKPWAGLVPRGSGVPGSGY
modifications: ELP lacritin fusion construct; (129)..(133) the sequence VPGSG is directly repeated 96 times
notes: lacritin fused to soluble ELP (VPGSG)96; thermally nonresponsive control
- Phase transitions in phosphate buffered saline [9]: does not display any observable phase transitions
